Source: article PMC6943536, “Free and Bound Phenolics of Buckwheat Varieties: HPLC Characterization, Antioxidant Activity, and Inhibitory Potency towards α-Glucosidase with Molecular Docking Analysis” (Antioxidants, 2019)
In brackets after ≈: the same amount, converted by molar mass.

Biological target: T1, α-glucosidase
T1 construct: gene MAL12; PDB 3A4A isomaltase is only a docking homologue
Test: pNPG hydrolysis, absorbance […] nm
Format: biochemical, Saccharomyces cerevisiae
Conditions: 5 mM p-NPG stock (100 µL of 250 µL), 0.1 M phosphate buffer pH 6.8, 37 °C, 10 min preincubation

| SMILES | IC50 [µg/mL] |
| --- | --- |
| O=C1c2c(O)cc(O)cc2O[C@H](c2cc(O)c(O)c(O)c2)[C@H]1O [dihydromyricetin] | 114.45 ± 0.31 (≈ 357 µM) |
| C[C@@H]1O[C@@H](OC[C@H]2O[C@@H](Oc3c(-c4ccc(O)cc4)oc4cc(O)cc(O)c4c3=O)[C@H](O)[C@@H](O)[C@@H]2O)[C@H](O)[C@H](O)[C@H]1O [kaempferol-3-O-rutinoside] | 447.50 ± 17.27 (≈ 753 µM) |
